Results on three molecules are retold here after patent US12351595B2, “Composition comprising O-cyclic phytosphingosine-1-phosphate for preventing or treating Parkinson's disease” (AXCESO BIOPHARMA CO., LTD., priority 2019, dated 2025).

Experiment [1] relates to SH-SY5Y cells. Briefly: MPP+-treated Parkinson's disease cell model, cell survival (MTT assay). Format: cell-based, human. As for the experimental part:
To prepare a Parkinson's disease cell model by inducing oxidative stress with MPP^+ (1-methyl-4-phenylpyridinium iodide, Sigma), MPP^+ was dissolved in a phosphate buffer solution, diluted to a final concentration of 3 mM, and added to a nerve cell culture medium. To confirm the efficacy of the cP1P drug in the MPP^+ environment, SH-SY5Y cells were pretreated with cP1P drug at concentrations of 10 nM, 100 nM, and 1000 nM, respectively, for 1 hour, and then exposed to oxidative stress by treatment with 3 mM MPP^+ for 24 hours. The efficacy of the cP1P drug on the survival of SH-SY5Y cells after 24 hours of exposure to oxidative stress was determined by MTT assay.
On the technique in general: Tetrazolium assays rely on reduction of a dye to a coloured formazan, in cell work by metabolically active cells.

The test system of experiment [2] is Tyrosine hydroxylase (TH). Briefly: Tyrosine hydroxylase (TH) expression in SH-SY5Y nerve cells (immunohistochemistry and western blot). The format is cell-based, human. The note with it: 24 hours. As for the experimental part:
Tyrosine hydroxylase (TH) is an enzyme that converts amino acid tyrosine into L-DOPA, a precursor of dopamine, and plays an important role in the formation of dopamine in nerve cells.
In order to confirm the efficacy of the cP1P drug on TH expression in SH-SY5Y nerve cells, SH-SY5Y nerve cell culture was treated with the cP1P drug at concentrations of 10 nM and 100 nM, respectively. TH expression was determined by immunohistochemistry and western blot after 24 hours.
(In general: A western blot detects proteins with antibodies after separation by electrophoresis.)

The test system of experiment [3] is SH-SY5Y nerve cells. Briefly: Rotenone-treated Parkinson's disease cell model, necrotic cell death (LDH detection kit). Format: cell-based, human. On the procedure:
Rotenone is a substance widely used in cell models to induce Parkinson's disease. It is well known that when a nerve cell is treated with rotenone, mitochondrial function is destroyed, and oxidative stress is induced to cause death of the nerve cell.
The SH-SY5Y nerve cell culture medium was treated with cP1P drug at concentrations of 100 nM and 1000 nM, respectively, and cultured for 24 hours. Then, rotenone (Sigma) was dissolved in DMSO, diluted to a final concentration of 2 μM, and added to the SH-SY5Y nerve cell culture medium. The SH-SY5Y nerve cells were cultured for an additional 24 hours. SH-SY5Y nerve cells were obtained and cultured in the same manner as in Example 1.
Necrotic cell death was measured for the cultured SH-SY5Y nerve cells using a lactate dehydrogenase (LDH) detection kit (BioVision).
For comparison, the necrotic cell death was also measured for the control group that was treated only with DMSO without cP1P drug and rotenone, and the control group that was treated only with diluted rotenone solution without cP1P drug. In addition, the necrotic cell death was measured for the treatment of the nerve cells with the cP1P drug at concentrations of 100 nM and 1000 nM, respectively.

In experiment [4] the test system is SH-SY5Y human nerve cell line. Briefly: Proliferation of SH-SY5Y human nerve cells (MTT assay). Conditions: 48 hours. Format: cell-based. On the procedure:
The SH-SY5Y human nerve cell line purchased from ATCC was used as a nerve cell line to evaluate the effect of the cP1P drug on the proliferation of dopaminergic human nerve cells. Dulbeco's Modified Eagle's Media/high glucose (with 10% FBS, 0.5% P/S) was used as a medium for culturing nerve cells, and the nerve cells were cultured at 37° C. in 5% CO2 incubator.
In order to observe the effect of cP1P drug on the proliferation of the dopaminergic human nerve cells, SH-SY5Y cells were treated with cP1P drug at concentrations of 10 nM, 100 nM and 1000 nM, respectively, and cultured for 48 hours. MTT assay (Molecular Probes) was performed according to the manufacturer's method to measure the cell proliferation rate.

On to `C[n+]1ccc(-c2ccccc2)cc1.[I-]` [MPP^+, 1-methyl-4-phenylpyridinium iodide, reference compound], for which, in experiment [1] (MPP+ 3 mM only, 24 hours), the nerve cell death result is “the nerve cells were killed”.
Turning to `CCCCCCCCCCCCCC[C@@H](O)[C@H]1OP(=O)(O)OC[C@@H]1N` [cP1P, O-cyclic phytosphingosine-1-phosphate], the “expression of the TH enzyme” value in experiment [2] (10 nM) and in experiment [2] (100 nM) was “increased” throughout. Also, the “degree of cell death” value in experiment [3] (cP1P 100 nM and 1000 nM alone, without rotenone) was “reduced the degree of cell death compared to the control group treated only with DMSO”. Further, the nerve cell death entry is “inhibited to the level equivalent to that of DMSO treatment without rotenone” in experiment [3] (cP1P 100 nM and 1000 nM for 24 hours, then rotenone 2 μM for 24 hours); “significantly reduced” in experiment [1] (cP1P 100 nM pretreatment 1 hour, then 3 mM MPP+ 24 hours); “significantly reduced” in experiment [1] (cP1P pretreatment (10, 100, 1000 nM) 1 hour, then 3 mM MPP+ 24 hours). In experiment [4] (10 nM), the “effect on the proliferation of SH-SY5Y cells” value is listed as “effect on the proliferation of SH-SY5Y cells appeared”. Moreover, in experiment [4] (100 nM (of 10, 100, 1000 nM)), the “effect on the nerve cell proliferation” value is recorded as “highest”.
With `C=C(C)[C@H]1Cc2c(ccc3c2O[C@@H]2COc4cc(OC)c(OC)cc4[C@@H]2C3=O)O1` [rotenone, reference compound], the “degree of nerve cell death” value in experiment [3] (rotenone 2 μM only, 24 hours) is reported as “exceed 30%”.
